Key:
[1] = molecular target: T1, Human Vitamin D Binding Protein (hDBP) (Homo sapiens, UniProt P02774); assay: Affinity for Human Vitamin D Binding Protein (hDBP), displacement of [3H]1α,25(OH)2D3; details: relative affinity from concentration displacing 50% of [3H]1α,25(OH)2D3, 1α,25(OH)2D3 assigned 100%, 4° C.
T1 sequence (P02774 17-474): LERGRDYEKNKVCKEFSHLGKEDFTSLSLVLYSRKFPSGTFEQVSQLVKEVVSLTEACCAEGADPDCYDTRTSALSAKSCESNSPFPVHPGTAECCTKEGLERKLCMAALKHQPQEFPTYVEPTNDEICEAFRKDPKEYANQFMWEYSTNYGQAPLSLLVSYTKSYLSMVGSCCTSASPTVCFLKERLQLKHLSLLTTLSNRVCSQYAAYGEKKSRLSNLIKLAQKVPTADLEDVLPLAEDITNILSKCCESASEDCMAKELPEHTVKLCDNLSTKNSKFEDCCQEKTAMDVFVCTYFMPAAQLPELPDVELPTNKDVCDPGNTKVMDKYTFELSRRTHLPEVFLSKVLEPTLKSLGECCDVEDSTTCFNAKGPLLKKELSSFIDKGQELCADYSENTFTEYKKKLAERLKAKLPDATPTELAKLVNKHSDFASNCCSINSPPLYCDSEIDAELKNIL
Procedure: The solution is incubated for 3 hours at 4° C. Final phase separation is obtained by adding 0.5 mL of cold destran-coated charcoal.

MCF-7 cells = assay: Measurement of cell proliferation, breast carcinoma cells MCF-7, [3H]thymidine incorporation; type: cell-based; details: cell proliferation ([3H]thymidine incorporation), relative to control 1α,25(OH)2D3 = 100
Procedure: Selected compounds of the present invention are evaluated for their effect on cell proliferation. Malignant MCF-7 cells are cultured in DMEM nutrient mix F12 (HAM) medium which is supplemented with 10% heat inactivated FCS, glutamine (2 mM), penicillin (100 units/mL) and streptomycin (0.1 mg/mL). The cultures are maintained at 37° C. in an atmosphere of humidified air containing 5% CO2. The MCF-7 cells are seeded at approximately 5×10^3 cells/well in the DMEM modified medium in a 96-well microtiter plate. […] Finally, 1 μCi of [^3H]thymidine is added to each well and the cells are harvested after a further 4 hour incubation period. The cells are harvested with a Parckard Harvester and the cell count measured by a Packard Topcount System.

HL-60 cells = assay: Promyelocytic leukemia cells (HL-60), differentiation markers (NBT reduction assay); type: cell-based; details: relative to control 1α,25(OH)2D3 = 100
Procedure: Selected compounds of the present invention are evaluated for their effect on cell proliferation. Falcon tissue chambers are seeded with 4×10^4 cells/cm^2 of HL-60 cells using RPMI 1640 medium supplemented with 20% FCS and gentamycin (50 μg/mL) in a final cell volume of 5 mL. The cultures are maintained at 37° C. in an atmosphere of humidified air containing 5% CO2. […] After 4 days, the dishes are shaken to lose adherent cells. The cells are then washed twice in RPMI medium, counted, and then assayed for differentiation markers (NBT reduction assay). Superoxide production is measured as NBT reducing activity as described by Ostrem. V. K et al. Proc Natl Acad Sci USA,. 1987 84: 2610-2614. HL-60 cells at 1×10^6/mL are mixed with an equal volume of freshly prepared solution of phorbol 12-myristate 13-acetate (200 ng/mL) and NBT ([…]) and incubated for 30 minutes at 37° C. The percentage of cells containing black formazan deposits is determined using a hemacytometer.

Vitamin D Receptor (VDR) = molecular target: T2, Vitamin D Receptor (VDR) (Sus scrofa, UniProt A3RGC1); details: relative affinity from concentration displacing 50% of [3H]1α,25(OH)2D3; 1α,25(OH)2D3 assigned 100%; 4° C., 20 hours
T2 sequence (A3RGC1 1-427): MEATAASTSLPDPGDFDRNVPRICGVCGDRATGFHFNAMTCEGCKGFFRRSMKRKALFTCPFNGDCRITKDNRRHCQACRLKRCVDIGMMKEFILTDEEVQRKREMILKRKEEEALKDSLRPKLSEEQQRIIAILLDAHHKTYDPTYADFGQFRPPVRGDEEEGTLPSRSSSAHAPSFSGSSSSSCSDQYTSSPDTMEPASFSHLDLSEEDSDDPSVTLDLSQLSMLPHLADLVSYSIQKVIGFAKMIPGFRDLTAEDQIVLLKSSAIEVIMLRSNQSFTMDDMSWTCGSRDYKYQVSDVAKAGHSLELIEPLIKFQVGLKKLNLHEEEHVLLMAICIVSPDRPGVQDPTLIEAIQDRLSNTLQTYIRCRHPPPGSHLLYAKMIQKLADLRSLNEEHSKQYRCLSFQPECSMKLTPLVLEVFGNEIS

[2] = In vivo determination of calcium levels (serum calcium, femur calcium); set-up: species or system NMRI mice; details: for Femur Ca: NMRI mice, IP daily for 7 consecutive days
From the text: . Table VII presents the serum and femur calcium levels in mice after intraperitoneal injections after 7 consecutive days.

SMILES	hDBP binding % [1] [%]	MCF-7 (MCF-7 cells)	HL-60 (HL-60 cells)	VDR binding % (Vitamin D Receptor (VDR)) [%]	Femur Ca ([2]; 0.1 μg/kg/d) [mg]	Femur Ca ([2]; 0.2 μg/kg/d) [mg]	Femur Ca ([2]; 0.4 μg/kg/d) [mg]	estimated serum calcium ([2]; as compared with 1α,25(OH)2D3 (control assigned 100%), mice, IP daily, 7 consecutive days) [%]	less calcemic than the control ([2]; mouse, in vivo)	estimated serum calcium ([2]; mouse, in vivo, ip) [%]
CC(C)(O)CCCC1CCC2(CCC/C(=C/C=C3C[C@@H](O)C[C@H](O)C3)C2)C1 (stereo in doubt) [(1R,3R)-5-{2-[(2S, 5R)-2-(4-hydroxy-4-methylpentyl)-spiro[4.5]dec-(7Z)-ylidene]-ethylidene}-cyclo-hexane-1,3-diol]	3	8	0.9	0.4	–	–	–	–	–	–
C=C1/C(=C\C=C2/CCC[C@]3(C)[C@@H]([C@H](C)CCCC(C)(C)O)CC[C@@H]23)C[C@@H](O)C[C@@H]1O [1α,25(OH)2D3, 1α,25-dihydroxyvitamin D3]	–	–	100	–	10.9	10.3	8.9	100	–	–
CC(C)(O)CCC[C@H]1CC[C@]2(CCC/C(=C\C=C3C[C@@H](O)C[C@H](O)C3)C2)C1 [(1R,3R)-5-{2-[(2R,5S)-2-(4-Hydroxy-4-methyl-pentyl)-spiro[4.] [(1R,3R)-5-{(E)-(2R,5S))-2-[2-(4-hydroxy-4-methylpentyl)-spiro[4.5]dec-7-ylidene]-ethylidene}-cyclohexane-1,3-diol]	0	9	4	0.4	–	–	–	–	–	–
CC(C)(O)CCC[C@H]1CC[C@]2(CCC/C(=C\C=C3C[C@@H](O)C[C@H](O)C3)C2)C1 [(1R,3R)-5-{2-[(2S,5R)-2-(4-Hydroxy-4-methyl-pentyl)-spiro[4.] [(1R,3R)-5-{2-[(2S,5R)-2-(4-hydroxy-4-methyl-pentyl)-spiro[4.5]dec-(7E)-ylidene]-ethylidene}-cyclohexane-1,3-diol]	3	50	10	0.8	–	–	–	–	–	–
CC(C)(O)CCC[C@H]1CC[C@@]2(CCC/C(=C\C=C3C[C@@H](O)C[C@H](O)C3)C2)C1 [(1R,3R)-5-{2-[(2S,5S)-2-(4-Hydroxy-4-methyl-pentyl)-spiro[4.5]dec-(7E)-ylidene]-ethylidene}-cyclo-hexane-1,3-diol]	0	20	8	0.7	–	–	–	–	–	–
CC(C)(O)CCC[C@H]1CC[C@@]2(CCC/C(=C/C=C3C[C@@H](O)C[C@H](O)C3)C2)C1 [(1R,3R)-5-{2-[(2S,5S)-2-(4-Hydroxy-4-methyl-pentyl)-spiro[4.5]dec-(7Z)-ylidene]-ethylidene}-cyclo-hexane-1,3-diol]	0	3	0.5	0	–	–	–	–	–	–
CC(C)(O)CCC[C@@H]1CC[C@]2(CCC/C(=C\C=C3C[C@@H](O)C[C@H](O)C3)C2)C1 [(1R,3R)-5-{(E)-(2R,5R))-2-[2-(4-hydroxy-4-methylpentyl)-spiro[4.5]dec-7-ylidene]-ethylidene}-cyclohexane-1,3-diol]	3	450	200	10	–	–	–	–	approximately 200 times	0.5
CC(C)(O)CCC[C@@H]1CC[C@]2(CCC/C(=C/C=C3C[C@@H](O)C[C@H](O)C3)C2)C1 [(1R,3R)-5-{(Z)-(2R,5R))-2-[2-(4-hydroxy-4-methylpentyl)-spiro[4.5]dec-7-ylidene]-ethylidene}-cyclohexane-1,3-diol]	3	75	8	0.8	–	–	–	–	–	–
CC(C)(O)CCC[C@H]1CC[C@]2(CCC/C(=C/C=C3C[C@@H](O)C[C@H](O)C3)C2)C1 [(1R,3R)-5-{(Z)-(2R,5S))-2-[2-(4-hydroxy-4-methylpentyl)-spiro[4.5]dec-7-ylidene]-ethylidene}-cyclohexane-1,3-diol]	0	4	<1	0	–	–	–	–	–	–
